Each structure is given as a SMILES string. Some results are limits rather than exact numbers.

The test relates to FOXC2-expressing HMLER cells. The test is described as follows: Cell Titer Glo viability of FOXC2-HMLER cells (high throughput screen and 10-point response). Format: cell-based. The conditions noted are these: Homo sapiens; scored relative to parent compound 1; 72 hours; read-out: Activity Score, inhibition of FOXC2-expressing HMLER cells by Formula I compounds. The protocol: For high throughput screening, FOXC2-HMLER and HMLER cells were plated at 10^3 cells per well in white 384-well plates in 50 μL of MEGM medium (Lonza). Cells were allowed to attach for one hour before compound was transferred to each well as a DMSO solution using a 100 nL pintool head affixed to a PerkinElmer FX instrument. After 72-hour incubation, 30 μL of a Cell Titer Glo solution (diluted 1:6 in water, Promega) was dispensed into each well and luminance values were recorded using an Envision plate reader. […] All other miniaturized, selective viability experiments were performed as above using the indicated growth medium.
More specifically, in the high throughput screening assay above, each cell line was plated at 1,000 cells per well in 384-well plates, treated for 72 hours with 2 μM of test compound, and the viability of each line was determined in parallel by Cell Titer Glo (Promega) luminance measurements.
Background: In ATP-based viability assays light output follows the ATP content of the culture.

For `CC1CC(C)CN(c2cnnc3c(Cl)cccc23)C1` (centres unmarked) [Compound 1A], the IC50 is 1 to 20 µM. Turning to `Cc1ccc(-c2cc3c(N4CCN(c5ccccc5)CC4)nccn3n2)cc1C` [Compound 1B], the IC50 is 1 to 20 µM. As to `Cc1ccc(N2CCN(c3nccn4nc(-c5ccccc5)cc34)CC2)cc1` [Compound 1C], the IC50 lay in the range of 1 to 20 µM. The result for `Clc1cccc(N2CCN(c3cnc4ccccc4n3)CC2)c1` [Compound 1D] reads 1 to 20 µM; that for `Clc1ccc(N2CCN(c3ccccc3Cl)CC2)nn1` [Compound 1E], greater than 20 µM; that for `COc1ccc(N2CCN(c3nccn4nc(-c5ccc(Cl)cc5)cc34)CC2)cc1` [Compound 1F], greater than 20 µM.

For the compound `Clc1ccc2c(N3CCNCC3)ccnc2c1` [Compound 1G], the IC50 is greater than 20 µM. The result for `Clc1ccc(N2CCN(c3cnnc4c(Cl)cccc34)CC2)cc1Cl` [Compound 1SRAA] reads 1 to 20 µM. As for `Clc1ccc(Cl)c(N2CCN(c3cnnc4c(Cl)cccc34)CC2)c1` [Compound 1SRAB], the IC50 was 1 to 20 µM. Turning to `FC(F)(F)Oc1cccc(N2CCN(c3cnnc4c(Cl)cccc34)CC2)c1` [Compound 1SRAC], the IC50 lay within 1 to 20 µM. The result for `Clc1cccc(N2CCN(c3cnnc4c(Cl)cccc34)CC2)n1` [Compound 1SRAD] reads 1 to 20 µM; that for `Clc1nccc(N2CCN(c3cnnc4c(Cl)cccc34)CC2)n1` [Compound 1SRAE], greater than 20 µM. In the case of `Clc1cncc(N2CCN(c3cnnc4c(Cl)cccc34)CC2)n1` [Compound 1SRAF], the IC50 is greater than 20 µM. The figure for `Fc1cc(Cl)cc(N2CCN(c3cnnc4c(Cl)cccc34)CC2)c1` [Compound 1SRAG] is less than 1 µM; for `COc1cc(Cl)cc(N2CCN(c3cnnc4c(Cl)cccc34)CC2)c1` [Compound 1SRAH] it is less than 0.234 µM; for `Cc1cc(Cl)cc(N2CCN(c3cnnc4c(Cl)cccc34)CC2)c1` [Compound 1SRAI] it is less than 1 µM. In the case of `FC(F)(F)c1cc(Cl)cc(N2CCN(c3cnnc4c(Cl)cccc34)CC2)c1` [Compound 1SRAJ], the IC50 fell in the range of 1 to 20 µM. On to `N#Cc1cc(Cl)cc(N2CCN(c3cnnc4c(Cl)cccc34)CC2)c1` [Compound 1SRAK], for which the IC50 is less than 1 µM. `Cc1c(Cl)cc(N2CCN(c3cnnc4c(Cl)cccc34)CC2)cc1Cl` [Compound 1SRAL]: the IC50 is 1 to 20 µM. The result for `Cc1c(S(=O)(=O)N2CCN(c3cnnc4c(Cl)cccc34)CC2)cnn1C(F)F` [Compound 1SRAM] reads greater than 20 µM; that for `Clc1cc(Cl)cc(N2C[C@@H]3C[C@H]2CN3c2cnnc3c(Cl)cccc23)c1` [Compound 1SRAN], less than 1 µM. The result for `Clc1cc(Cl)cc(N2CCN(c3cnnc4c(Cl)cccc34)CC2)c1` [Compound 1SRH] reads less than 0.234 µM; that for `Fc1c(Cl)cc(N2CCN(c3cnnc4c(Cl)cccc34)CC2)cc1Cl` [Compound 1SRI], 1 to 20 µM. The result for `Fc1ccc(N2CCN(c3cnnc4c(Cl)cccc34)CC2)cc1Cl` [Compound 1SRJ] reads 1 to 20 µM; that for `Fc1c(Cl)cccc1N1CCN(c2cnnc3c(Cl)cccc23)CC1` [Compound 1SRK], 1 to 20 µM. Turning to `CC1CN(c2cc(Cl)cc(Cl)c2)CCN1c1cnnc2c(Cl)cccc12` (centres unmarked) [Compound 1SRL], the IC50 was less than 1 µM. In the case of `CC1CN(c2cnnc3c(Cl)cccc23)CCN1c1cc(Cl)cc(Cl)c1` (centres unmarked) [Compound 1SRM], the IC50 was less than 1 µM. The result for `Clc1cc(Cl)cc(N2CCN(c3cnnc4ccccc34)CC2)c1` [Compound 1SRN] reads less than 1 µM; that for `Fc1cccc(N2CCN(c3cnnc4c(Cl)cccc34)CC2)c1` [Compound 1SRO], 1 to 20 µM. The figure for `FC(F)(F)c1cccc(N2CCN(c3cnnc4c(Cl)cccc34)CC2)c1` [Compound 1SRP] is 1 to 20 µM; for `FC(F)(F)Sc1cccc(N2CCN(c3cnnc4c(Cl)cccc34)CC2)c1` [Compound 1SRQ] it is 1 to 20 µM; for `COc1cccc(N2CCN(c3cnnc4c(Cl)cccc34)CC2)c1` [Compound 1SRT] it is less than 1 µM.

Values taken from US11759461B2, “Small molecule inhibitors of cancer stem cells and mesenchymal cancer types” (The Scripps Research Institute, priority 2017, dated 2023).
